Assay results taken from PubChem BioAssay (NCI).
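Method: 48-hour compound exposure of cells in 96-well plates, five concentrations, linear interpolation of endpoints. TGI denotes the concentration required for complete inhibition of growth.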

How the values were obtained:
Test in all cases: DTP human tumour cell line panel, 48 h
786-0 renal = tested on: 786-0 renal
A549 NSCLC = tested on: A549 NSCLC
BT-549 breast = tested on: BT-549 breast
CAKI-1 renal = tested on: CAKI-1 renal
CCRF-CEM leukemia = tested on: CCRF-CEM leukemia
COLO 205 colon = tested on: COLO 205 colon
DU-145 prostate = tested on: DU-145 prostate
HCC-2998 colon = tested on: HCC-2998 colon
HCT-116 colon = tested on: HCT-116 colon
HCT-15 colon = tested on: HCT-15 colon
HL-60(TB) leukemia = tested on: HL-60(TB) leukemia
HOP-62 NSCLC = tested on: HOP-62 NSCLC
HS 578T breast = tested on: HS 578T breast
HT29 colon = tested on: HT29 colon
IGROV1 ovarian = tested on: IGROV1 ovarian
K-562 leukemia = tested on: K-562 leukemia
KM12 colon = tested on: KM12 colon
LOX IMVI melanoma = tested on: LOX IMVI melanoma
M14 melanoma = tested on: M14 melanoma
MALME-3M melanoma = tested on: MALME-3M melanoma
MCF7 breast = tested on: MCF7 breast
MDA-MB-231 breast = tested on: MDA-MB-231 breast
MDA-MB-435 = tested on: MDA-MB-435
MDA-N = tested on: MDA-N
MOLT-4 leukemia = tested on: MOLT-4 leukemia
NCI-H226 lung = tested on: NCI-H226 lung
NCI-H23 lung = tested on: NCI-H23 lung
NCI-H460 lung = tested on: NCI-H460 lung
NCI-H522 lung = tested on: NCI-H522 lung
NCI/ADR-RES ovarian = tested on: NCI/ADR-RES ovarian
OVCAR-3 ovarian = tested on: OVCAR-3 ovarian
OVCAR-4 ovarian = tested on: OVCAR-4 ovarian
OVCAR-5 ovarian = tested on: OVCAR-5 ovarian
OVCAR-8 ovarian = tested on: OVCAR-8 ovarian
PC-3 prostate = tested on: PC-3 prostate
RPMI-8226 leukemia = tested on: RPMI-8226 leukemia
RXF 393 renal = tested on: RXF 393 renal
SF-295 CNS = tested on: SF-295 CNS
SF-539 CNS = tested on: SF-539 CNS
SK-MEL-2 melanoma = tested on: SK-MEL-2 melanoma
SK-MEL-28 melanoma = tested on: SK-MEL-28 melanoma
SK-MEL-5 melanoma = tested on: SK-MEL-5 melanoma
SN12C renal = tested on: SN12C renal
SNB-19 CNS = tested on: SNB-19 CNS
SNB-75 CNS = tested on: SNB-75 CNS
SR leukemia = tested on: SR leukemia
SW-620 colon = tested on: SW-620 colon
T-47D breast = tested on: T-47D breast
TK-10 renal = tested on: TK-10 renal
U251 CNS = tested on: U251 CNS
UACC-257 melanoma = tested on: UACC-257 melanoma
UACC-62 melanoma = tested on: UACC-62 melanoma
UO-31 renal = tested on: UO-31 renal
ACHN renal = tested on: ACHN renal
EKVX NSCLC = tested on: EKVX NSCLC
HOP-92 NSCLC = tested on: HOP-92 NSCLC
SF-268 CNS = tested on: SF-268 CNS
SK-OV-3 ovarian = tested on: SK-OV-3 ovarian

CC(NS(C)(=O)=O)c1ccccc1 (centres undefined)
TGI (786-0 renal): > 100 µM | TGI (A549 NSCLC): > 100 µM | TGI (BT-549 breast): > 100 µM | TGI (CAKI-1 renal): > 100 µM | TGI (CCRF-CEM leukemia): > 100 µM | TGI (COLO 205 colon): > 100 µM | TGI (DU-145 prostate): > 100 µM | TGI (HCC-2998 colon): > 100 µM | TGI (HCT-116 colon): > 100 µM | TGI (HCT-15 colon): > 100 µM | TGI (HL-60(TB) leukemia): > 100 µM | TGI (HOP-62 NSCLC): > 100 µM | TGI (HS 578T breast): > 100 µM | TGI (HT29 colon): > 100 µM | TGI (IGROV1 ovarian): > 100 µM | TGI (K-562 leukemia): > 100 µM | TGI (KM12 colon): > 100 µM | TGI (LOX IMVI melanoma): > 100 µM | TGI (M14 melanoma): > 100 µM | TGI (MALME-3M melanoma): > 100 µM | TGI (MCF7 breast): > 100 µM | TGI (MDA-MB-231 breast): > 100 µM | TGI (MDA-MB-435): > 100 µM | TGI (MDA-N): > 100 µM | TGI (MOLT-4 leukemia): > 100 µM | TGI (NCI-H226 lung): > 100 µM | TGI (NCI-H23 lung): > 100 µM | TGI (NCI-H460 lung): > 100 µM | TGI (NCI-H522 lung): > 100 µM | TGI (NCI/ADR-RES ovarian): > 100 µM | TGI (OVCAR-3 ovarian): > 100 µM | TGI (OVCAR-4 ovarian): > 100 µM | TGI (OVCAR-5 ovarian): > 100 µM | TGI (OVCAR-8 ovarian): > 100 µM | TGI (PC-3 prostate): > 100 µM | TGI (RPMI-8226 leukemia): > 100 µM | TGI (RXF 393 renal): > 100 µM | TGI (SF-295 CNS): > 100 µM | TGI (SF-539 CNS): > 100 µM | TGI (SK-MEL-2 melanoma): > 100 µM | TGI (SK-MEL-28 melanoma): > 100 µM | TGI (SK-MEL-5 melanoma): > 100 µM | TGI (SN12C renal): > 100 µM | TGI (SNB-19 CNS): > 100 µM | TGI (SNB-75 CNS): > 100 µM | TGI (SR leukemia): > 100 µM | TGI (SW-620 colon): > 100 µM | TGI (T-47D breast): > 100 µM | TGI (TK-10 renal): > 100 µM | TGI (U251 CNS): > 100 µM | TGI (UACC-257 melanoma): > 100 µM | TGI (UACC-62 melanoma): > 100 µM | TGI (UO-31 renal): > 100 µM

C/C(=N\Nc1ccc([N+](=O)[O-])cc1[N+](=O)[O-])c1ccc2ccccc2n1
TGI (786-0 renal): > 100 µM | TGI (A549 NSCLC): > 100 µM | TGI (ACHN renal): > 100 µM | TGI (BT-549 breast): > 100 µM | TGI (CAKI-1 renal): > 100 µM | TGI (COLO 205 colon): > 100 µM | TGI (DU-145 prostate): > 100 µM | TGI (EKVX NSCLC): > 100 µM | TGI (HCT-116 colon): > 100 µM | TGI (HCT-15 colon): > 100 µM | TGI (HOP-92 NSCLC): > 100 µM | TGI (HS 578T breast): > 100 µM | TGI (HT29 colon): > 100 µM | TGI (IGROV1 ovarian): > 100 µM | TGI (K-562 leukemia): > 100 µM | TGI (KM12 colon): > 100 µM | TGI (M14 melanoma): > 100 µM | TGI (MALME-3M melanoma): > 100 µM | TGI (MCF7 breast): > 100 µM | TGI (MDA-MB-231 breast): > 100 µM | TGI (MDA-MB-435): > 100 µM | TGI (MDA-N): > 100 µM | TGI (MOLT-4 leukemia): > 100 µM | TGI (NCI-H226 lung): > 100 µM | TGI (NCI-H23 lung): > 100 µM | TGI (NCI-H460 lung): > 100 µM | TGI (NCI-H522 lung): 55.7 µM | TGI (NCI/ADR-RES ovarian): > 100 µM | TGI (OVCAR-5 ovarian): > 100 µM | TGI (OVCAR-8 ovarian): > 100 µM | TGI (PC-3 prostate): > 100 µM | TGI (RPMI-8226 leukemia): > 100 µM | TGI (RXF 393 renal): > 100 µM | TGI (SF-268 CNS): > 100 µM | TGI (SF-295 CNS): > 100 µM | TGI (SF-539 CNS): > 100 µM | TGI (SK-MEL-2 melanoma): > 100 µM | TGI (SK-MEL-28 melanoma): > 100 µM | TGI (SK-MEL-5 melanoma): > 100 µM | TGI (SK-OV-3 ovarian): > 100 µM | TGI (SN12C renal): > 100 µM | TGI (SNB-19 CNS): 94.4 µM | TGI (SNB-75 CNS): > 100 µM | TGI (SR leukemia): > 100 µM | TGI (SW-620 colon): > 100 µM | TGI (T-47D breast): > 100 µM | TGI (TK-10 renal): > 100 µM | TGI (U251 CNS): > 100 µM | TGI (UACC-257 melanoma): > 100 µM | TGI (UACC-62 melanoma): > 100 µM | TGI (UO-31 renal): > 100 µM
